Molecules are shown by their SMILES.

Experimental findings from patent publication US7915282B2, “C2-phenyl-substituted cyclic keto-enols used as pesticides and herbicides” (Bayer Aktiengesellschaft, priority 2000, dated 2011) are described below.

What all share (type): in vivo
In assay [1] the test system is greenhouse red spider mite (Tetranychus urticae). The experiment in a line: Tetranychus test (OP-resistant/dip treatment). The settings on record: active compound concentration of 1000 ppm; after 7 days; infested bean plants dipped. The protocol:
[table] To produce a suitable preparation of active compound, 1 part by weight of active compound is mixed with the stated amounts of solvent and emulsifier, and the concentrate is diluted with emulsifier-containing water to the desired concentration. Bean plants (Phaseolus vulgaris) which are heavily infested by all stages of the greenhouse red spider mite (Tetranychus urticae) are dipped into a preparation of active compound of the desired concentration. After the desired period of time, the effect in % is determined. 100% means that all spider mites have been killed; 0% means that none of the spider mites have been killed.

Assay [2] relates to Digitaria. The assay can be described thus: Post-emergence test. Conditions: after three weeks. The protocol:
(§1) [table] To produce a suitable preparation of active compound, 1 part by weight of active compound is mixed with the stated amount of solvent, the stated amount of emulsifier is added and the concentrate is diluted with water to the desired concentration. Test plants of a height of 5-15 cm are sprayed with the preparation of active compound such that the particular amounts of active compound desired are applied per unit area. The concentration of the spray liquor is chosen such that the particular amount of active compound desired is applied in 1000 l of water/ha. After three weeks, the degree of damage to the plants is rated in % damage in comparison to the development of the untreated control. The figures denote: [table]

A further assay relates to Ipomoea. The experiment in a line: Post-emergence test. The settings on record: 125 g ai/ha, after three weeks. As to the method: as §1
Assay [3] has as its system Lolium. The experiment in a line: Post-emergence test. The settings on record: 125 g ai/ha, after three weeks. As to the method: as §1
The subject of assay [4] is Alopecurus. The assay can be described thus: Post-emergence test. The settings on record: after three weeks. As to the method:
as §1

In assay [5] the test system is Sugar beet. The experiment in a line: Post-emergence test. The settings on record: after three weeks. As to the method: as §1
In assay [6] the test system is Setaria. The assay can be described thus: Post-emergence test. The settings on record: after three weeks. The protocol: as §1
The test system of another assay is Avena fatua. The assay can be described thus: Post-emergence test. The settings on record: after three weeks. The protocol:
as §1

Assay [7] concerns Digitaria. The assay can be described thus: Pre-emergence test. Conditions: 125 g ai/ha, after three weeks. As to the method:
(§2) [table] To produce a suitable preparation of active compound, 1 part by weight of active compound is mixed with the stated amount of solvent, the stated amount emulsifier is added and the concentrate is diluted with water to the desired concentration. Seeds of the test plants are sown in normal soil. After about 24 hours, the soil is sprayed with the preparation of active compound such that the particular amounts of active compound desired are applied per unit area. The concentration of the spray liquor is chosen such that the particular amounts of active compound desired are applied in 1000 l of water/ha. After three weeks, the degree of damage to the plants is rated in % damage in comparison to the development of the untreated controls. The figures denote: [table]

The subject of assay [8] is Lolium. The experiment in a line: Pre-emergence test. The settings on record: 125 g ai/ha, after three weeks. As to the method: as §2
Another assay concerns Soya bean. The experiment in a line: Pre-emergence test. Conditions: 125 g ai/ha, after three weeks. The protocol: as §2
Assay [9] deals with Alopecurus. The experiment in a line: Pre-emergence test. Conditions: 125 g ai/ha, after three weeks. The protocol:
as §2

The subject of the next assay is Veronica. The assay can be described thus: Pre-emergence test. Conditions: 125 g ai/ha, after three weeks. The protocol:
as §2

Assay [10] deals with Sugar beet. The assay can be described thus: Pre-emergence test. Conditions: 125 g ai/ha, after three weeks. The protocol: as §2
The test system of assay [11] is Setaria. The experiment in a line: Pre-emergence test. The settings on record: 125 g ai/ha, after three weeks. The protocol:
as §2

In assay [12] the test system is larvae of the mustard beetle (Phaedon cochleariae). The experiment in a line: Phaedon larvae test. Conditions: active compound concentration of 1000 ppm; after 7 days; cabbage leaves dipped. The protocol:
(§3) [table] To produce a suitable preparation of active compound, 1 part by weight of active compound is mixed with the stated amounts of solvent and emulsifier, and the concentrate is diluted with emulsifier-containing water to the desired concentration. Cabbage leaves (Brassica oleracea) are treated by being dipped into the preparation of active compound of the desired concentration and are populated with larvae of the mustard beetle (Phaedon cochleariae) while the leaves are still moist. After the desired period of time, the kill in % is determined. 100% means that all beetle larvae have been killed; 0% means that none of the beetle larvae have been killed.

The test system of assay [13] is peach aphids (Myzus persicae). The experiment in a line: Myzus test. Conditions: active compound concentration of 1000 ppm; after 6 days; infested cabbage leaves dipped. As to the method:
as §3, with “oleracea) which are heavily infested by the peach aphids (Myzus persicae)” for “oleracea)”, “concentration.” for “concentration and are populated with larvae of the mustard beetle (Phaedon cochleariae) while the leaves are still moist.”, “aphids” for “beetle larvae”

A further assay has as its system Polygonum. The experiment in a line: Post-emergence test. The settings on record: 60 g ai/ha, after three weeks. The protocol: as §1
The next assay has as its system Abutilo. The assay can be described thus: Pre-emergence test. Conditions: 125 g ai/ha, after three weeks. The protocol:
as §2

A further assay concerns Bromus. The experiment in a line: Pre-emergence test. The settings on record: 125 g ai/ha, after three weeks. As to the method:
as §2

Another assay deals with Cyperus. The experiment in a line: Pre-emergence test. The settings on record: 125 g ai/ha, after three weeks. The protocol:
as §2

Take `C#Cc1cc(C)c(C2=C(O)C3(CCC(OC)CC3)NC2=O)c(C)c1` (centres unmarked) [Example I-1-a-21]: the kill in % in assay [1] and in assay [12] was 100% throughout. Besides, the “% damage Digitaria” value with Digitaria [2] (125 g ai/ha) and in the assay on Digitaria [7] was 100% in each case. Further, in the assay on Ipomoea, the “% damage Ipomoea” value is given as 70%. For the same compound, the “% damage Lolium” value with Lolium [3] came to 95%; in the assay with Lolium [8] it was 100%. Besides, the “% damage Alopecurus” value in the assay with Alopecurus [4] (125 g ai/ha) and in the assay with Alopecurus [9] was 100% throughout. Besides, the “% damage Sugar beet” value in the assay with Sugar beet [5] (125 g ai/ha) and with Sugar beet [10] was 0% throughout. The entries for the “% damage Setaria” value in the assay with Setaria [6] (125 g ai/ha) and with Setaria [11] were 99% and 100%, respectively. In addition, the “% damage Avena fatua” value in the assay on Avena fatua (125 g ai/ha) is 90%. The “% damage Soya bean” value in the assay with Soya bean was determined as 0%. In the assay on Veronica, the “% damage Veronica” value was found to be 100%.
Regarding `C#Cc1cc(C)c(C2=C(OC(=O)OCC)C3(CCC(OC)CC3)NC2=O)c(C)c1` (centres unmarked) [Example I-1-c-4], the kill in % in [1] and in assay [13] was 100% throughout. Also, the results for the “% damage Digitaria” value in the assay on Digitaria [2] (60 g ai/ha) and with Digitaria [7] were 95% and 100%, respectively. Also, the “% damage Alopecurus” value with Alopecurus [4] (60 g ai/ha) was found to be 90%; in the assay on Alopecurus [9], 95%. For the same compound, the “% damage Polygonum” value with Polygonum was 70%. Also, the “% damage Sugar beet” value with Sugar beet [5] (60 g ai/ha) was 10%. In addition, the “% damage Setaria” value in the assay with Setaria [6] (60 g ai/ha) and in the assay with Setaria [11] was 100% each time. Further, the “% damage Avena fatua” value in the assay on Avena fatua (60 g ai/ha) was found to be 90%. Moreover, the “% damage Abutilo” value with Abutilo came out at 70%. Moreover, the “% damage Lolium” value in the assay on Lolium [8] was 100%. For the same compound, in the assay on Soya bean, the “% damage Soya bean” value turned out to be 20%. Further, the “% damage Bromus” value in the assay with Bromus turned out to be 100%. For the same compound, in the assay on Cyperus, the “% damage Cyperus” value amounted to 100%.
